pIC50: −log10 of the molar value. Where two headings read alike, the source gives them in different places.
Experiments:
[1] = biological target: T1, PRMT5/MEP50-MTA protein complex (Homo sapiens, UniProt O14744); experiment: Thermal shift assay: thermal stability (melting temperature) of PRMT5/MEP50-MTA protein complex; format: binding; details: final compound concentration 8 µM; 2 µM PRMT5/MEP50, 2 µM MTA; Tm minus Tm of DMSO vehicle control
T1 construct: purchased Viva Biotech
Excerpt: Test Example 1: Determination of the ability of the compounds of the present invention to improve the thermal stability (melting temperature) of the PRMT5/MEP50-MTA protein complex.
1 Experimental objective: The objective of this test example is to determine the ability of the compound to improve the thermal stability of the PRMT5/MEP50-MTA protein complex, resulting in an increase in the protein melting temperature. 2 Experimental instruments: Quantitative PCR instrument (Quantstudio6 Flex) was purchased from Life Technologies; pipettes were purchased from Eppendorf or Rainin. 3 Experimental reagents and consumables: PRMT5/MEP50 protein was prepared by Viva Biotech; HEPES was purchased from Thermo Fisher Scientific (Cat. No. 15630080); DTT was purchased from Sigma (Cat. No. 43816-10ml); sodium chloride was purchased from Invitrogen (Cat. No. AM9760G); Protein Thermal Shift™ Dye Kit was purchased from Thermo Fisher Scientific (Cat. No. 4461146); methylthioadenosine (MTA) was purchased from Sigma (Cat. No. D5011). 4 Experimental method: In this experiment, the thermal shift method was used to measure the change in the melting temperature (Tm) of the PRMT5/MEP50-MTA protein complex before and after compound binding, thereby characterising the ability of the compound to improve the thermal stability of the PRMT5/MEP50-MTA protein complex. A solution containing 50 mM HEPES, 10 mM DTT, 2 µM MTA, SYPRO Orange and 250 mM NaCl was prepared as the experimental buffer. Human PRMT5/MEP50 protein was added to a final concentration of 2 µM, and the mixture was incubated at room temperature for 30 minutes. The above reaction mixture was aliquoted into 8-strip PCR tubes at 19.5 µL per tube. Then 0.5 µL of test compound or DMSO was added to each tube, providing a total reaction volume of 20 µL and a final compound concentration of 8 µM. 2.5% DMSO was set as the vehicle control. After incubation at room temperature for 10 minutes, the PCR tubes were placed in a PCR instrument, and the melt curve function was selected to measure the melting temperature of the PRMT5/MEP50-MTA protein complex in different treatment groups (heated from 25°C to 95°C, 0.03°C/s). 5 Experimental data processing method: The experimental data files from the PCR instrument were imported into the thermal shift software to obtain the melting temperature (Tm) for each treatment group.

HCT116 wild-type cells = experiment: Cell proliferation inhibition (CellTiter-Glo), HCT116 wild-type cells; format: cell-based; details: Homo sapiens
Excerpt: (§1) Test Example 2: Determination of the inhibitory effect of the compounds of the present invention on the proliferation activity of HCT116 and MTAP Knockout HCT116 cells.
(§2) 1 Experimental objective: The objective of this test example is to determine the inhibitory effect of the compound on the proliferation activity of HCT116 wild-type and HCT116 MTAP knockout cells. 2 Experimental instruments: Centrifuge (Eppendorf 5810R); microplate reader (BioTek Synergy H1 or PerkinElmer Envision); pipette (Eppendorf or Rainin). 3 Experimental reagents: HCT116 and MTAP Knockout HCT116 cells were purchased from Nanjing Cobioer; Cell Titer-Glo was purchased from Promega (Cat. No. G7573); McCoy'5A was purchased from Gibco (Cat. No. 12330031); FBS was purchased from Gibco (Cat. No. 10091148); PBS was purchased from Gibco (Cat. No. 10010023); trypsin was purchased from Gibco (Cat. No. 25200056); cell culture plates were purchased from Corning (Cat. No. 3610). 4 Experimental method: HCT116 and MTAP Knockout HCT116 cells were cultured in McCoy'5A medium containing 10% FBS until an appropriate cell density was reached. The cells were then collected and adjusted to a suitable concentration using complete medium. The cell suspension was seeded into a 96-well plate at 90 µL per well and allowed to adhere overnight in a 37°C, 5% CO2 incubator. Compound solutions of various concentrations were prepared using DMSO and culture medium, with a vehicle control set. The compound solutions were added to the 96-well plate at 10 µL per well, and the plate was incubated in a 37°C, 5% CO2 incubator for an additional 72-240 hours. After incubation, CellTiter-Glo solution was added, and the mixture was mixed uniformly by shaking, followed by incubation in the dark for 10 to 30 minutes. Luminescence was measured using a Synergy H1 or Envision microplate reader. 5 Experimental data processing method: The inhibition rate was calculated using the luminescence signal values, and the concentrations along with the inhibition rates were subjected to non-linear regression curve fitting using Graphpad Prism software to obtain the IC50 values.

[2] = test system: MTAP Knockout HCT116 cells; experiment: Cell proliferation inhibition (CellTiter-Glo), HCT116 MTAP knockout cells; format: cell-based; details: for Selectivity: HCT116 IC50 versus MTAP Knockout HCT116 IC50; for pIC50: Homo sapiens
Excerpt: as §1, §2

[3] = Pharmacokinetics in rats (plasma) after oral administration; format: in vivo; details: rat, po, SD rats, p.o. 5 mg/kg; for Cmax: read-out: Cmax; for MRT inf: read-out: MRT0-∞; for Tmax: read-out: tmax
Experimental: Test Example 4: Determination of the pharmacokinetics of the compounds of the present invention in rats (plasma) after oral administration.
1 Study objective: SD rats were used as test animals to study the pharmacokinetic behaviour of the following example compounds in rats (plasma) after oral administration at a dose of 5 mg/kg. 2 Test scheme • 2.1 Test drugs: Vehicle formula: 0.5% CMC-Na (1% Tween 80); the examples of the present invention, made in house. • 2.2 Test animals: 3 SD rats per group, male, purchased from Shanghai Bikai Keyi Biotechnology Co., Ltd., with animal license number (SCXK (Shanghai) 2018-0006, No.20180006037467). • 2.3 Administration: 3 SD rats per group, male, were fasted overnight and then respectively administered PO at a dose of 5 mg/kg and a volume of 10 mL/kg. • 2.4 Sample collection: 0.2 mL of blood was collected from the jugular vein of rats before administration and at 0, 0.25, 0.5, 1, 2, 4, 6, 8 and 24 h after administration, and placed in EDTA-K2test tubes, and the test tubes were centrifuged at 6,000 rpm at 4°C for 6 min to separate the plasma, which was stored at -80°C. The animals were fed 4 h after administration. • 2.5 Sample treatment • 1) 160 uL of acetonitrile was added to 40 uL of plasma sample for precipitation, and after mixing, the mixture was centrifuged at 3,500 × g for 5-20 minutes. • 2) 100 uL of the treated supernatant solution was taken for LC/MS/MS analysis to determine the concentration of the test compounds. • 2.6 Liquid phase analysis • Liquid phase conditions: Shimadzu LC-20AD pump;mass spectrometry conditions: AB Sciex API 4000 mass spectrometer • Chromatographic column: Phenomenex Gemiu 5 um C18 50 × 4.6 mm • Mobile phase: solution A: 0.1% formic acid in water, solution B: methanol • Flow rate: 1.0 mL/min, elution time: 0-4.0 min, with eluents as follows:
Experimental results and analysis: The main pharmacokinetic parameters were calculated using WinNonlin 8.2.

[4] = HCT-116, read-out: MTAP Knockout HCT116 IC50

T1 sequence (O14744 whole entry): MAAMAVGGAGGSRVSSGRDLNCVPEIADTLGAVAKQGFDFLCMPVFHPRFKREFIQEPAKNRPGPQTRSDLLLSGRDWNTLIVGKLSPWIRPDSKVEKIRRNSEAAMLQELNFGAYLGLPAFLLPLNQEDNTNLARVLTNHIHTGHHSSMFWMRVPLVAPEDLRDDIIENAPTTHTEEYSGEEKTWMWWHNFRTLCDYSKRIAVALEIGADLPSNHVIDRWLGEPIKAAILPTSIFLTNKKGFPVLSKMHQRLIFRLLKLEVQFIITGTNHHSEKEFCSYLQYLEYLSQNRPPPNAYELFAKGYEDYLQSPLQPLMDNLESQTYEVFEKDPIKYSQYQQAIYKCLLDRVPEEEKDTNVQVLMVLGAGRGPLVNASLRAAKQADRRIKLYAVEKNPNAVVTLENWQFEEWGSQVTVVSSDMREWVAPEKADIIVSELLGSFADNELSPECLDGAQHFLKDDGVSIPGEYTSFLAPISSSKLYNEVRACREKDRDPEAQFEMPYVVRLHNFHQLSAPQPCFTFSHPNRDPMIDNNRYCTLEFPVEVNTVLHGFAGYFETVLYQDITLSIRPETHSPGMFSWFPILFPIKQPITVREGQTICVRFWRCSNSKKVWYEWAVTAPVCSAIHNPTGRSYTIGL
T1 sequence (Q9BQA1 whole entry partner): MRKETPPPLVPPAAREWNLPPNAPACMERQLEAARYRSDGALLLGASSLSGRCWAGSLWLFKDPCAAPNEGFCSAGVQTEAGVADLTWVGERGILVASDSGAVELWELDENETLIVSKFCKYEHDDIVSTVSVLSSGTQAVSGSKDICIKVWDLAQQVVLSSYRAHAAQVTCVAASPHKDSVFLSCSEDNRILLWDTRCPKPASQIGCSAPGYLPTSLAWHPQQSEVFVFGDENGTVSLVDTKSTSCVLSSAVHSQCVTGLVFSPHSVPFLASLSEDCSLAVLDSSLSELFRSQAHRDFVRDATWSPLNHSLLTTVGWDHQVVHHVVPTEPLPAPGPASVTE

## Nc1nc2cc3c(cc2n2cncc12)C(=O)N(C1COCc2nc(C(F)(F)F)ccc21)CCCCOC3 (stereo not shown) [Example 48, 4-Amino-13-(2-(trifluoromethyl)-5,8-dihydro-6H-pyrano[3,4-b]pyridin-5-yl)-10,11,12,13-tetrahydro-7H-imidazo [1,5-a] [1,6] oxazino [3,4-g] quinoxalin-14(9H)-one]
[1]
  ΔTm at 8 µM: 10.9 °C

## Nc1nc2cc3c(cc2c2c1COC2)C(=O)N(Cc1ccc(C24CC(C2)C4)cn1)CCCOC3 [Example 510, 4-Amino-12-((5-(bicyclo[1.1.1]pentan-1-yl)pyridin-2-yl)methyl)-3,7,9,10,11,12-hexahydrofuro[3,4-c][1,5]oxazolo[7,8-g]quinolin-13(1H)-one]
[1]
  ΔTm at 8 µM: 11.3 °C
HCT116 wild-type cells; HCT-116, read-out: HCT116 IC50
  pIC50: 6.11
[2]
  Selectivity: 66
[2]; [4]
  pIC50: 7.92

## Nc1nc2cc3c(cc2n2cncc12)C(=O)N(Cc1ccc(C(F)(F)F)nn1)CCC/C=C\3 [Example 391, (Z)-4-Amino-12-(6-(trifluoromethyl)pyridazin-3-yl)methyl-9,10,11,12-tetrahydro-13H-azonino[4,3-g]imidazo[1,5-a]quinoxalin-13-one]
[1]
  ΔTm at 8 µM: 10.9 °C

## Nc1nc2cc3c(cc2n2cncc12)C(=O)N(Cc1ccc(C24CC(C2)C4)cn1)CCCOC3 [Example 484, 4-Amino-12-((5-(bicyclo[1.1.1]pentan-1-yl)pyridin-2-yl)methyl)-9,10,11,12-tetrahydroimidazo[1,5-a][1,5]oxazolo[8,7-g]quinoxalin-13(7H)-one]
[1]
  ΔTm at 8 µM: 11.9 °C
HCT116 wild-type cells; HCT-116, HCT116 wild-type cells, proliferation inhibition, Cell Titer-Glo, read-out: HCT116 IC50
  pIC50: 6.42
[2]
  Selectivity: 38
[2]; HCT-116, MTAP Knockout HCT116 cells, proliferation inhibition, Cell Titer-Glo, read-out: MTAP Knockout HCT116 IC50
  pIC50: 8.00

## Nc1nc2cc3c(cc2n2cncc12)C(=O)N(C1COCc2cc(C(F)(F)F)ccc21)CCC/C=C\3 (stereo not shown) [Example 167, (Z)-4-Amino-12-(7-trifluoromethylisochroman-4-yl)-9,10,11,12-tetrahydro-13H-azonino[4,3-g]imidazo[1,5-a]quinoxalin-13-one]
[1]
  ΔTm at 8 µM: 12.3 °C

## CC1OCc2c1c(N)nc1cc3c(cc21)C(=O)N(Cc1ccc(C(F)(F)F)cn1)CCCOC3 (stereo not shown) [Example 184, 4-Amino-3-methyl-12-((5-(trifluoromethyl)pyridin-2-yl)methyl)-3,7,9,10,11,12-hexahydrofuro[3,4-c][1,5]oxazolo [7,8-g]quinoxalin-13(1H)-one]
[1]
  ΔTm at 8 µM: 11.1 °C
HCT116 wild-type cells; HCT-116, read-out: HCT116 IC50
  pIC50: 5.64
[2]
  Selectivity: 108
[2]; [4]
  pIC50: 7.68

## Nc1nc2cc3c(cc2n2cncc12)C(=O)N([C@@H]1COCc2nc(C(F)(F)F)ccc21)CC/C=C\3 (single isomer, unassigned) [Example 311-P1]
[1]
  ΔTm at 8 µM: 10.9 °C
[3]; in vivo
  AUC(0-inf): 1780 ng·h/mL
  half-life: 1.8 h
  Cmax: 330 ng/mL
  MRT inf: 3.7 h
  Tmax: 2.3 h

## Cc1nc(CN2CC/C=C\c3cc4nc(N)c5cncn5c4cc3C2=O)ccc1C(F)(F)F [Example 688, (Z)-4-Amino-11-((6-methyl-5-(trifluoromethyl)pyridin-2-yl)methyl)-10,11-dihydroazo[4,3-g]imidazo[1,5-a]quinoxalin-12(9H)-one]
[1]
  ΔTm at 8 µM: 11.6 °C

## CN1CCCN(Cc2ccc(C(F)(F)F)cn2)C(=O)c2cc3c(cc2C1)nc(N)c1cnn(C)c13 [Example 502, 4-Amino-1,8-dimethyl-12-((5-(trifluoromethyl)pyridin-2-yl)methyl)-7,8,9,10,11,12-hexahydro-[1,5]diazonino[7,8-g]pyrazolo[4,3-c]quinolin-13(1H)-one]
[1]
  ΔTm at 8 µM: 10.6 °C

## Nc1nc2cc3c(cc2n2cncc12)C(=O)N(C1COCc2nc(C(F)(F)F)ccc21)CCC/C=C\3 (stereo not shown) [Example 158, (Z)-4-Amino-12-(2-(trifluoromethyl)-5,8-dihydro-6H-pyrano[3,4-b]pyridin-5-yl)-9,10,11,12-tetrahydro-13H-azonino[4,3-g]imidazo[1,5-a]quinoxalin-13-one]
[1]
  ΔTm at 8 µM: 11.3 °C
[3]; male
  AUC(0-inf): 712 ng·h/mL
  half-life: 1.3 h
  Cmax: 287 ng/mL
  MRT inf: 2 h
  Tmax: 0.5 h

## Nc1nc2cc3c(cc2n2cncc12)C(=O)N(C1COCc2nc(C(F)(F)F)ccc21)CCCCC3 (stereo not shown) [Example 159, 4-Amino-12-(2-(trifluoromethyl)-5,8-dihydro-6H-pyrano[3,4-b]pyridin-5-yl)-7,8,9,10,11,12-hexahydro-13H-azonino[4,3-g]imidazo[1,5-a]quinoxalin-13-one]
[1]
  ΔTm at 8 µM: 10.5 °C

## Nc1nc2cc3c(cc2n2cncc12)C(=O)N(C1COCc2nc(C(F)(F)F)ccc21)CCCC/C=C\3 (single isomer, unassigned) [Example 62-P1]
[1]
  ΔTm at 8 µM: 10.8 °C
[3]; male
  AUC(0-inf): 800 ng·h/mL
  half-life: 2.2 h
  Cmax: 201 ng/mL
  MRT inf: 3.8 h
  Tmax: 1 h

## C[C@@H]1CCN([C@@H]2COCc3nc(C(F)(F)F)ccc32)C(=O)c2cc3c(cc2CO1)nc(N)c1cncn13 [Example 15-P1, (R)-4-amino-9-methyl-12-((S)-2-(trifluoromethyl)-5,8-dihydro-6H-pyrano[3,4-b]pyridin-5-yl)-9,10,11,12-tetrahydroimidazo[1,5-a][1,5]oxazolo[8,7-g]quinoxalin-13(7H)-one and (S)-4-amino-9-methyl-12-((R)-2-(trifluoromethyl)-5,8-dihydro-6H-pyrano[3,4-b]pyridin-5-yl)-9,10,11,12-tetrahydroimidazo[1,5-a][1,5]oxazolo[8,7-g]quinoxalin-13(7H)-one]
[1]
  ΔTm at 8 µM: 10.1 °C

## C[C@@H]1CCCN(Cc2ccc(C(F)(F)F)cn2)C(=O)c2cc3c(cc2C1)nc(N)c1cncn13 [Example 514-P1, (R)-4-amino-8-methyl-12-((5-(trifluoromethyl)pyridin-2-yl)methyl)-7,8,9,10,11,12-hexahydro-13H-azo[4,3-g]imidazo[1,5-a]quinoxalin-13-one]
[1]
  ΔTm at 8 µM: 11.3 °C

## CC(c1ccc(C(F)(F)F)nc1)N1CCC/C=C\c2cc3nc(N)c4cncn4c3cc2C1=O (stereo not shown) [Example 415, (Z)-4-Amino-12-(1-(6-(trifluoromethyl)pyridin-3-yl)ethyl)-9,10,11,12-tetrahydro-13H-azo[4,3-g]imidazo[1,5-a]quinoxalin-13-one]
[1]
  ΔTm at 8 µM: 10.3 °C

## CC(c1ccc(C(F)(F)F)cn1)N1CCC/C=C\c2cc3nc(N)c4cncn4c3cc2C1=O (racemic) [Example 352, (Z)-4-Amino-12-(1-(5-(trifluoromethyl)pyridin-2-yl)ethyl)-9,10,11,12-tetrahydro-13H-azo[4,3-g]imidazo[1,5-a]quinoxalin-13-one]
[1]
  ΔTm at 8 µM: 11 °C

Reference: patent publication EP4818176A1, “TETRACYCLIC DERIVATIVE INHIBITOR, AND PREPARATION METHOD AND USE THEREFOR” (Shanghai Hansoh Biomedical Co., Ltd., priority 2023, dated 2025)
